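Exposure lasted 48 hours, with cells grown in 96-well plates and compounds tested at five concentrations. TGI: concentration producing complete growth inhibition.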
Columns and labels:
Assay in all cases: NCI tumour cell line growth inhibition, 48 h
SF-295 CNS = tested on: SF-295 CNS
HCT-15 colon = tested on: HCT-15 colon
HCC-2998 colon = tested on: HCC-2998 colon
HOP-18 NSCLC = tested on: HOP-18 NSCLC
KM20L2 colon = tested on: KM20L2 colon
COLO 205 colon = tested on: COLO 205 colon
786-0 renal = tested on: 786-0 renal
M19-MEL melanoma = tested on: M19-MEL melanoma
M14 melanoma = tested on: M14 melanoma
HOP-62 NSCLC = tested on: HOP-62 NSCLC
UO-31 renal = tested on: UO-31 renal
ACHN renal = tested on: ACHN renal
LOX IMVI melanoma = tested on: LOX IMVI melanoma
NCI-H522 lung = tested on: NCI-H522 lung
HCT-116 colon = tested on: HCT-116 colon
DMS 114 small cell lung = tested on: DMS 114 small cell lung
HL-60(TB) leukemia = tested on: HL-60(TB) leukemia
SN12C renal = tested on: SN12C renal
UACC-257 melanoma = tested on: UACC-257 melanoma
EKVX NSCLC = tested on: EKVX NSCLC
MOLT-4 leukemia = tested on: MOLT-4 leukemia
TK-10 renal = tested on: TK-10 renal
CCRF-CEM leukemia = tested on: CCRF-CEM leukemia
RPMI-8226 leukemia = tested on: RPMI-8226 leukemia
DLD-1 colon = tested on: DLD-1 colon
U251 CNS = tested on: U251 CNS
XF 498 CNS = tested on: XF 498 CNS
SNB-19 CNS = tested on: SNB-19 CNS
UACC-62 melanoma = tested on: UACC-62 melanoma
LXFL 529 NSCLC = tested on: LXFL 529 NSCLC
NCI-H23 lung = tested on: NCI-H23 lung
OVCAR-4 ovarian = tested on: OVCAR-4 ovarian
SNB-75 CNS = tested on: SNB-75 CNS
SK-OV-3 ovarian = tested on: SK-OV-3 ovarian
HT29 colon = tested on: HT29 colon
SR leukemia = tested on: SR leukemia
SK-MEL-2 melanoma = tested on: SK-MEL-2 melanoma
K-562 leukemia = tested on: K-562 leukemia
NCI-H460 lung = tested on: NCI-H460 lung
HOP-92 NSCLC = tested on: HOP-92 NSCLC
SW-620 colon = tested on: SW-620 colon
KM12 colon = tested on: KM12 colon
OVCAR-5 ovarian = tested on: OVCAR-5 ovarian
MALME-3M melanoma = tested on: MALME-3M melanoma
CAKI-1 renal = tested on: CAKI-1 renal
NCI-H226 lung = tested on: NCI-H226 lung
OVCAR-8 ovarian = tested on: OVCAR-8 ovarian
SK-MEL-5 melanoma = tested on: SK-MEL-5 melanoma
DMS 273 small cell lung = tested on: DMS 273 small cell lung
SNB-78 CNS = tested on: SNB-78 CNS
RXF 393 renal = tested on: RXF 393 renal
IGROV1 ovarian = tested on: IGROV1 ovarian
SF-539 CNS = tested on: SF-539 CNS
SK-MEL-28 melanoma = tested on: SK-MEL-28 melanoma
A498 renal = tested on: A498 renal
OVCAR-3 ovarian = tested on: OVCAR-3 ovarian
A549 NSCLC = tested on: A549 NSCLC
SF-268 CNS = tested on: SF-268 CNS
DU-145 prostate = tested on: DU-145 prostate
RXF-631 renal = tested on: RXF-631 renal

Measured: TGI

COc1ccc(/C(Cl)=C(\C=N/O)c2ccc(OC)c(OC)c2)cc1OC
not listed: DU-145 prostate | RXF-631 renal
> 100 µM: all other assays above

CC(=O)OC[C@@H](COC(=O)/C=C/c1ccc(O)cc1)OC1OC(CO)C(O)C(O)C1O (stereo not given in full)
not listed: DMS 114 small cell lung | DMS 273 small cell lung
> 100 µM: all other assays above

Cc1cccc(C)c1NC(=O)C1C(=O)N(c2c(C)cccc2C)C(=O)/C1=N\N (stereo not given)
not listed: DMS 114 small cell lung | XF 498 CNS | NCI-H460 lung | KM12 colon | SNB-78 CNS | DU-145 prostate
> 100 µM: all other assays above

From PubChem BioAssay (NCI)
